According to patent publication US11590240B2, “Nano-fibular nanoparticle polymer-drug conjugate for sustained dermal delivery of retinoids” (Massachusetts Institute of Technology, priority 2015, dated 2023):

Assays:
Balb/CJ mouse = assay: Irritation after topical application to mouse dermis (digital imaging, H&E histology); type: in vivo; details: for gross appearance of treated skin: 10 μM ATRA dosing equivalent, topical
Procedure: Mice used for the assessment of irritation were given each of the two different treatments on 1 cm^2 regions of their dorsum, these included PATRA, ATRA, PVA, and PBS. A total of twelve mice were used in this assessment. 50 μL of 10 μM ATRA solution was placed on two 1 cm^2 shaved areas on the flanks of a Balb/CJ mouse on either side of midline. PATRA (0.092 mg mL^−1) and PVA (0.089 mg mL^−1) concentrations were controlled for 10 μM ATRA dosing. These solutions were rubbed into the skin using a cotton-tipped applicator for 30 seconds.
Tissues were fixed in zinc fixative without formalin for 48 hours. The excised tissues were cut on center and then embedded cut-face down in paraffin. Sections were taken at the wound center and at one further level of 500 μm reaching a total of 1 mm sampling length through the application site. At each level an H&E slide was stained. Unstained slides were also taken for potential IHC analysis of the tissue. All sections were 5 μm thick. Image analysis was performed using Image J.
To investigate the relative irritative nature of PATRA in comparison to ATRA, each was tested on the flanks of mice. Irritation was evaluated by digital imaging of the application site of ATRA, PATRA, or control solutions for up to five days post-application as well as by histological evaluation of inflammation after 5 days. In brief, 50 μL of 10 μM ATRA solution was placed on a 1 cm^2 shaved area on the flank of a Balb/CJ mouse. PATRA (0.092 mg mL^−1) and PVA (0.089 mg mL^−1) concentrations were controlled for 10 μM ATRA dosing. This solution is rubbed into the skin using a cotton-tipped applicator for 30 seconds. Each mouse received one of the four different material solutions applied in two locations. Inflammation and dermal changes subsequent to ATRA application were evaluated by both by digital imaging and by H&E histology.

[1] = Solubility of free ATRA and PATRA in different solutions (UV absorbance of supernatant); type: physicochemical
Procedure: Solubility was evaluated by bringing 2 mg/ml of ATRA either free or conjugated to PVA into equilibrium at room temperature for 1 hour, followed by centrifugation of the solution at 1,500 rpm for five minutes to remove undissolved precipitate. The supernatant from this process was then used for the testing of ATRA concentration via UV absorbance as previously described.

[2] = Uptake, retention and penetration of ATRA in pig skin, Franz diffusion cell; type: in vitro ADME
Procedure: Uptake, retention, and penetration of ATRA in pig skin were investigated using a Franz diffusion cell as described and known in the art. Skin was harvested from the flanks of adult female Yorkshire pigs 1 hour after sacrifice with subcutaneous fat removed. Skin was sectioned and frozen at −80° C. for up to six months prior to use. Skin was prepared for diffusion experiments by thawing in PBS for one hour after which time all hair on the skin was shaven off. Test samples of skin were cut to 30 mm×30 mm square samples and placed into the diffusion cell such that the top of the dermis faced a 3 mL testing retention reservoir and the underside faced a 15 mL penetration reservoir. […]
Samples were placed into the retention reservoir at a concentration of 0.1 mg/mL and followed for up to 12 hours. ATRA concentration was evaluated in both the retention and penetration reservoirs every four hours during this period via UV absorbance measurements. […] For both groups, the penetration reservoir was filled with a hydroalcoholic solution so that the ATRA that could penetrate the skin would be soluble for UV absorbance measurement. […]
Samples to be tested were placed into the retention reservoir at a concentration of 0.1 mg/mL and followed for up to 12 hours. ATRA concentration was evaluated in both the retention and penetration reservoirs every four hours during this period via UV absorbance measurements. […]

## CC1=C(/C=C/C(C)=C/C=C/C(C)=C/C(=O)O)C(C)(C)CCC1 [ATRA, All-trans retinoic acid]
Balb/CJ mouse; after 5 days
  stratum corneum (SC) and epidermal thickness, histology: Significantly increased
Balb/CJ mouse; five days post-application
  gross appearance of treated skin: still has a rash-like quality with a thick and calloused appearance
Balb/CJ mouse; three days post-application
  gross appearance of treated skin: begins to appear inflamed after three days
[1]; PBS 1× (pH7.4)
  solubility, in words: insoluble
[1]; deionized water
  solubility, in words: insoluble
[2]; 12 hours of exposure, 0.1 mg/mL in retention reservoir, room temperature
  fraction of ATRA accumulated within the treated skin: 1.9±0.9%
[2]; every four hours up to 12 hours
  ATRA in the receiving (penetration) reservoir, free ATRA versus PATRA: much higher level of ATRA accumulation at every time point tested
